Assay [1] addresses T1, PDGFR-β (Homo sapiens, UniProt P09619).
T1 construct: host or cells: NIH 3T3
The assay is described as follows: Biochemical PDGFR assay (ELISA, PDGFR-β expressing NIH 3T3 cell lysate). As to conditions: read-out: bio PDGF IC50. The gist of the method:
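PDGFR-β from NIH 3T3 cell lysate captured on anti-PDGFR (28D4C10)-coated plates; compound preincubated 30 min, then 20 μM ATP kinase reaction 30 min at room temperature, stopped with EDTA. Phosphotyrosine detected by anti-phosphotyrosine antibody, peroxidase conjugate and ABTS/H2O2, read at 410 nm.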
(ELISA stands for enzyme-linked immunosorbent assay.)

In assay [2] the target is T2, flkGST (Homo sapiens, UniProt P35968).
T2 construct: GST
T2 sequence (P35968 786-1356 limits assumed): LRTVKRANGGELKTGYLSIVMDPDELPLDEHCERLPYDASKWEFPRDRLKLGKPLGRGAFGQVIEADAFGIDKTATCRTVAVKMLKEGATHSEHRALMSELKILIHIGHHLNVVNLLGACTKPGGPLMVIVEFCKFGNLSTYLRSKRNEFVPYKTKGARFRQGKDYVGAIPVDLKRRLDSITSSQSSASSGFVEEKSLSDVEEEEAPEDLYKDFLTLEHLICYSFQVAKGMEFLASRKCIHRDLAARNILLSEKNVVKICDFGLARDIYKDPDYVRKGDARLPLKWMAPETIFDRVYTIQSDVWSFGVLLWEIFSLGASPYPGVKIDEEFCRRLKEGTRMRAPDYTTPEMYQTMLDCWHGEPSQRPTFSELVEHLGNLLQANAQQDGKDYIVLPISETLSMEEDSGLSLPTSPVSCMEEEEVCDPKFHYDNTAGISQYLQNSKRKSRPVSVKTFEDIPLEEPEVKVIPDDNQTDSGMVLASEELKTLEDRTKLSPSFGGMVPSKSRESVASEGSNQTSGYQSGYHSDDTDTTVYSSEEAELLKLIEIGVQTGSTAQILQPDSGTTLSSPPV
As to the kind of experiment: bio flkGST assay. It counts as biochemical.

In assay [3] the target is Myc-GyrB-FGFR fusion protein (Homo sapiens, UniProt P11362). The assay is described as follows: Biochemical FGFR assay (ELISA). As to conditions: read-out: bio fgfR1 IC50.
Myc-GyrB-FGFR fusion protein, sequence (P11362 478-767 limits assumed): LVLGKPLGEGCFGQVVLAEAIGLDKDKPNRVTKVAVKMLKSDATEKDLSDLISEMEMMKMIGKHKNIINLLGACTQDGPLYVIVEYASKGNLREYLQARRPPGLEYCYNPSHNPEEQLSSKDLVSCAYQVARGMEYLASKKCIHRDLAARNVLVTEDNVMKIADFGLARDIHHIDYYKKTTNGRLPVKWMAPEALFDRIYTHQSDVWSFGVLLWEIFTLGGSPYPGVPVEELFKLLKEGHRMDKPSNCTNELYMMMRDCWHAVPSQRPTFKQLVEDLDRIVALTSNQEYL

IC50 data for 30 compounds are collected here from patent US6855730B2, “3-methylidenyl-2-indolinone modulators of protein kinase” (Sugen, Inc., priority 1998, dated 2005).

The structures appear in SMILES notation.

T1 sequence (P09619 33-1106): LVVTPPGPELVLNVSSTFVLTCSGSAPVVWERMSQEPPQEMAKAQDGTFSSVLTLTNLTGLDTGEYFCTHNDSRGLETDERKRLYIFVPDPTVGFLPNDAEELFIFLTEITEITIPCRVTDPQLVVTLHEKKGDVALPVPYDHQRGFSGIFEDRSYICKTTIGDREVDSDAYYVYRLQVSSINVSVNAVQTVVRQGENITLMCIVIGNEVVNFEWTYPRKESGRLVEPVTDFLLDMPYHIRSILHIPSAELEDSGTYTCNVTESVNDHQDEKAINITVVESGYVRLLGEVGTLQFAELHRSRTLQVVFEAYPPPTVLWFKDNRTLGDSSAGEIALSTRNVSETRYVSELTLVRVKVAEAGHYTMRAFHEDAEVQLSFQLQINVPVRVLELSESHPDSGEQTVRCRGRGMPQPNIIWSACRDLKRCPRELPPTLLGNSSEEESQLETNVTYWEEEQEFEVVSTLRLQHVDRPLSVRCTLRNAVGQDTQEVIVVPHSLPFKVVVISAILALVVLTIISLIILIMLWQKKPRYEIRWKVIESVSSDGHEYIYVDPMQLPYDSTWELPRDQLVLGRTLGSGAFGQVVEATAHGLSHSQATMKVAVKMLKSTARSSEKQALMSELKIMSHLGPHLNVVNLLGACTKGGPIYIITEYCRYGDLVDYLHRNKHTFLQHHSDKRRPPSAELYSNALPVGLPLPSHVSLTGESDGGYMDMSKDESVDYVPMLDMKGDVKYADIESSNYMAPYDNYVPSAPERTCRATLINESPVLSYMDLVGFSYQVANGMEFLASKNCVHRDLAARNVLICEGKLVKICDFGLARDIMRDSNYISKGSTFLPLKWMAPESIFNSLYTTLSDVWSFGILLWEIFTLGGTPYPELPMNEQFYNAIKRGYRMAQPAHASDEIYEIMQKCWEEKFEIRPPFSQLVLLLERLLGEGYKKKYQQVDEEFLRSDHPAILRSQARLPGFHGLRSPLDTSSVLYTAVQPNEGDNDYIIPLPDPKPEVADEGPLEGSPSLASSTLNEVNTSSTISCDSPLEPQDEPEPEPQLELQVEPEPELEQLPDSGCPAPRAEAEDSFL

As usually defined, the IC50 is the midpoint of a concentration-inhibition curve. With `CNC(=O)CCc1c(/C=C2\C(=O)Nc3ccccc32)[nH]c2c1CCCC2` [Example 201, N-Methyl-3-[2-(2-oxo-1,2-dihydroindol-3-ylidenemethyl)-4,5,6,7-tetrahydro-1H-indol-3-yl]-propionamide], the IC50 was 1730 nM in assay [1] and 570 nM in assay [2].

As to `NC(=O)CCc1c(/C=C2\C(=O)Nc3ccccc32)[nH]c2c1CCCC2` [Example 199, 3-[2-(2-Oxo-1,2-dihydroindol-3-ylidenemethyl)-4,5,6,7-tetrahydro-1H-indol-3-yl]-propionamide], the IC50 worked out at 890 nM in assay [1] and 170 nM in assay [2].

In the case of `Cc1c[nH]c(/C=C2\C(=O)Nc3ccc(Cl)cc32)c1CCC(=O)O` [Example 216, 3-[2-(5-Chloro-2-oxo-1,2-dihydroindol-3-ylidenemethyl)-4-methyl-1H-pyrrol-3-yl]-propionic acid], in assay [1], the 50% inhibitory concentration (IC50) came out at 220 nM.

Regarding `Nc1ccc2c(c1)/C(=C/c1ccc3[nH]ccc3c1)C(=O)N2` [Example 179, 5-Amino-3-(1H-indol-5-ylmethylene)-1,3-dihydro-indol-2-one], the figures for the IC50 in assay [1], in assay [2] and in assay [3] were over 100000 nM, 1840 nM and 4520 nM, respectively.

Consider `Cc1cccc2c1/C(=C/c1[nH]c3c(c1CCC(=O)O)CCCC3)C(=O)N2` [Example 193, 3-[2-(4-Methyl-2-oxo-1,2-dihydroindol-3-ylidenemethyl)-4,5,6,7-tetrahydro-1H-indol-3-yl]-propionic acid], for which the IC50 in assay [1] was 44600 nM; in assay [2] it was 3600 nM; in assay [3] it was 20 nM.

On to `Cc1c(/C=C2\C(=O)Nc3ccc(N)cc32)[nH]c2ccccc12` [Example 180, 5-Amino-3-(3-methyl-1H-indol-2-ylmethylene)-1,3-dihydroindol-2-one], for which the IC50 in assay [1] worked out at 1110 nM; in assay [2] it was 1110 nM; in assay [3], 5420 nM.

In the case of `O=C1Nc2ccc(C(=O)O)cc2/C1=C/c1c[nH]c2ccccc12` [Example 174, 3-(1H-Indol-3-ylmethylene)-2-oxo-2,3-dihydro-1H-indole-5-carboxylic acid], the IC50 was found to be 2500 nM in assay [1], 1850 nM in assay [2] and 410 nM in assay [3].

`Cc1c[nH]c(/C=C2\C(=O)Nc3ccc(Br)cc32)c1CCC(=O)O` [Example 220, 3-[2-(5-Bromo-2-oxo-1,2-dihydroindol-3-ylidenemethyl)-4-methyl-1H-pyrrol-3-yl]-propionic acid]: the IC50 in assay [1] was 620 nM; in assay [2], 110 nM.

In the case of `COc1ccc(-c2ccc3c(c2)NC(=O)/C3=C\c2[nH]c3c(c2CCC(=O)O)CCCC3)cc1` [Example 205, 3-{2-[6-(4-Methoxyphenyl)-2-oxo-1,2-dihydro-indol-3-ylidenemethyl]-4,5,6,7-tetrahydro-1H-indol-3-yl}-propionic acid], the IC50 amounted to 5430 nM in assay [1], 440 nM in assay [2] and 2020 nM in assay [3].

Turning to `CNS(=O)(=O)c1ccc2c(c1)/C(=C/c1cc3ccccc3[nH]1)C(=O)N2` [Example 173, 3-(1H-Indol-2-ylmethylene)-2-oxo-2,3-dihydro-1H-indole-5-sulfonic acid methylamide], the IC50 stood at 69100 nM in assay [1], 11100 nM in assay [2] and 290 nM in assay [3].

With `O=C1Nc2ccc(C(=O)O)cc2/C1=C/c1ccc2[nH]ccc2c1` [Example 177, 3-(1H-Indol-5-ylmethylene)-2-oxo-2,3-dihydro-1H-indole-5-carboxylic acid], the concentration for half-maximal inhibition (IC50) in assay [1] was over 100000 nM; in assay [2], 1340 nM; in assay [3], 1600 nM.

For the compound `O=C(O)CCc1c(/C=C2\C(=O)Nc3ccc(Br)cc32)[nH]c2c1CCCC2` [Example 192, 3-[2-(5-Bromo-2-oxo-1,2-dihydroindol-3-ylidenemethyl)-4,5,6,7-tetrahydro-1H-indol-3yl]-propionic acid], the IC50 came to 4 nM in assay [1], 30 nM in assay [2] and 1810 nM in assay [3].

For the compound `COc1c(C(C)C)cc(/C=C2/C(=O)Nc3ccc(Cl)cc32)cc1C(C)C` [Example 2, 5-Chloro-3-(3,5-diisopropyl-4-methoxybenzylidene)-1,3-dihydroindol-2-one], the IC50 in assay [1] is over 100000 nM.

With `CCOc1cccc(-c2ccc3c(c2)NC(=O)/C3=C\c2[nH]cc(C)c2CCC(=O)O)c1` [Example 224, 3-{2-[6-(3-Ethoxyphenyl)-2-oxo-1,2-dihydro-indol-3-ylidenemethyl]-4-methyl-1H-pyrrol-3-yl}-propionic acid], the results for the IC50 in assay [1], in assay [2] and in assay [3] were 2380 nM, 670 nM and 4240 nM, respectively.

For `O=C(O)CCc1c(/C=C2\C(=O)Nc3cc(-c4ccccc4)ccc32)[nH]c2c1CCCC2` [Example 206, 3-[2-(2-oxo-6-phenyl-1,2-dihydroindol-3-ylidenemethyl)-4,5,6,7-tetrahydro-1H-indol-3-yl]-propionic acid], the figures for the IC50 in assay [1], in assay [2] and in assay [3] were 40 nM, 60 nM and 1180 nM, respectively.

`O=C(O)CCc1ccccc1/C=C1/C(=O)Nc2ccccc21` [Example 214, 3-[2-(2-Oxo-1,2-dihydroindol-3-ylidenemethyl)-phenyl]-propionic acid]: the IC50 in assay [1] is over 100000 nM; in assay [3], 30200 nM.

With `Cc1cc(CCC(=O)O)c(/C=C2\C(=O)Nc3ccc(Br)cc32)[nH]1` [Compound 116, 3-[2-(5-Bromo-2-oxo-1,2-dihydroindol-3-ylidenemethyl)-5-methyl-1H-pyrrol-3-yl]-propionic acid], the figures for the IC50 in assay [1], in assay [2] and in assay [3] were 20 nM, 100 nM and 290 nM, respectively.

On to `Cc1ccc2c(c1)/C(=C/c1[nH]c3c(c1CCC(=O)O)CCCC3)C(=O)N2` [Example 194, 3-[2-(5-Methyl-2-oxo-1,2-dihydroindol-3-ylidenemethyl)-4,5,6,7-tetrahydro-1H-indol-3-yl]-propionic acid], for which the results for the IC50 in assay [1], in assay [2] and in assay [3] were 81400 nM, 6670 nM and 40 nM, respectively.

Turning to `Cc1c[nH]c(/C=C2\C(=O)Nc3cccc(C)c32)c1CCC(=O)O` [Example 218, 3-[2-(4-Methyl-2-oxo-1,2-dihydroindol-3-ylidenemethyl)-4-methyl-1H-pyrrol-3-yl]-propionic acid], the IC50 in assay [1] amounted to 2110 nM; in assay [2], 480 nM.

For `O=C1Nc2ccc(N=Cc3cc4ccccc4[nH]3)cc2C1=Cc1cc2ccccc2[nH]1` [Example 171, 3-(1H-indol-2-ylmethylene)-5-[(1H-indol-2-ylmethylene)-amino]-1,3-dihydroindol-2-one], the results for the IC50 in assay [1] and in assay [3] were 68600 nM and over 20000 nM, respectively.

As to `COc1ccc2c(c1)/C(=C/c1[nH]cc(C)c1CCC(=O)O)C(=O)N2` [Example 222, 3-[2-(5-Methoxy-2-oxo-1,2-dihydroindol-3-ylidenemethyl)-4-methyl-1H-pyrrol-3-yl]-propionic acid], the values for the IC50 in assay [1] and in assay [2] were 3750 nM and 180 nM, respectively.

With `O=C(O)CCc1c(/C=C2\C(=O)Nc3ncccc32)[nH]c2c1CCCC2` [Example 203, 3-[2-(2-Oxo-1,2-dihydropyrrolo[2,3-b]pyridin-3-ylidenemethyl)-4,5,6,7-tetrahydro-1H-indol-3-yl]-propionic acid], the results for the IC50 in assay [1] and in assay [3] were 150 nM and 2270 nM, respectively.

`CC(C)NS(=O)(=O)c1ccc2c(c1)C(=Cc1[nH]c3c(c1CCC(=O)O)CCCC3)C(=O)N2` [Example 208, 3-[2-(5-Isopropylaminosulfonyl-2-oxo-1,2-dihydroindol-3-ylidenemethyl)-4,5,6,7-tetrahydro-1H-indol-3-yl]-propionic acid]: the values for the IC50 in assay [1] and in assay [2] were 23400 nM and 380 nM, respectively.

Turning to `COc1c(C(C)C)cc(/C=C2/C(=O)Nc3ccccc32)cc1C(C)C` [Example 1, 3-(3,5-Diisopropyl-4-methoxybenzylidene)-1,3-dihydroindol-2-one], in assay [1], the IC50 is over 100000 nM.

Regarding `CN(C)CCCc1c(/C=C2\C(=O)Nc3ccccc32)[nH]c2c1CCCC2` [Example 198, 3-[3-(3-Dimethylaminopropyl)-4,5,6,7-tetrahydro-1H-indol-2-ylmethylene]-1,3-dihydroindol-2-one], the IC50 in assay [1] was determined as 40 nM; in assay [2] it was 5840 nM.

As for `O=C(CCc1c(/C=C2\C(=O)Nc3ccccc32)[nH]c2c1CCCC2)NCCN1CCOCC1` [Example 202, N-(2-Morpholin-4-ylethyl)-3-[2-(2-oxo-1,2-dihydroindol-3-ylidenemethyl)-4,5,6,7-tetrahydro-1H-indol-3-yl]-propionamide], the IC50 in assay [1] was determined as 9580 nM; in assay [2] it was 2540 nM.

On to `O=C1Nc2ccccc2/C1=C/c1[nH]c2c(c1CCC(=O)N1CCOCC1)CCCC2` [Example 200, 3-[3-(3-Morpholin-4-yl-3-oxopropyl)-4,5,6,7-tetrahydro-1H-indol-2-ylmethylene]-1,3-dihydroindol-2-one], for which the IC50 was found to be 11800 nM in assay [1] and 1290 nM in assay [2].

In the case of `COc1ccc2c(c1)NC(=O)/C2=C\c1[nH]cc(C)c1CCC(=O)O` [Example 217, 3-[2-(6-Methoxy-2-oxo-1,2-dihydroindol-3-ylidenemethyl)-4-methyl-1H-pyrrol-3-yl]-propionic acid], the 50% inhibitory concentration (IC50) in assay [1] is 210 nM.

For `Cc1c[nH]c(C=C2C(=O)Nc3cc(Cl)ccc32)c1CCC(=O)O` [Example 219, 3-[2-(6-Chloro-2-oxo-1,2-dihydroindol-3-ylidenemethyl)-4-methyl-1H-pyrrol-3-yl]-propionic acid], the IC50 in assay [1] came out at 470 nM.

For `CN(C)C(=O)CCc1c(/C=C2\C(=O)Nc3ccccc32)[nH]c2c1CCCC2` [Example 197, N,N-Dimethyl-3-[2-(2-oxo-1,2-dihydroindol-3-ylidenemethyl)-4,5,6,7-tetrahydro-1H-indol-3-yl]-propionamide], the IC50 in assay [1] is over 100000 nM; in assay [2], 610 nM.
